27 compounds from patent US9156796B2, “Benzoimidazole-carboxylic acid amide derivatives as APJ receptor modulators” (SANOFI, priority 2013, dated 2015) can be followed below.

Bounds are passed on as bounds.

For this assay, the target named is T1, human apelin receptor (Homo sapiens, UniProt P35414).
T1 construct: expressed in transfected cells
T1 sequence (P35414 1-380): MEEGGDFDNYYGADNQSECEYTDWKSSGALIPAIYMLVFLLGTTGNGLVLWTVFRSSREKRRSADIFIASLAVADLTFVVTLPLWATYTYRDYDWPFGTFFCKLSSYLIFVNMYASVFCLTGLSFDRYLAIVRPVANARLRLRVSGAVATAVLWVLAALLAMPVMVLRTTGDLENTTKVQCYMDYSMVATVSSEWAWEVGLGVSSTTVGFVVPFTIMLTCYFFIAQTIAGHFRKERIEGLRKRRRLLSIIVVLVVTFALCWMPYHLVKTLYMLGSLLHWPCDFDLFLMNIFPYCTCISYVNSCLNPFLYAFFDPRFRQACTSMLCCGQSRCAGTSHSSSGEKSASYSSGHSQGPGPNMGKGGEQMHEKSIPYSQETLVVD
Nature of the assay: Determination of agonism on the human apelin receptor by a calcium fluorescence assay (FLIPR). The assay is classed as cell-based. To be noted: HEK293 cells stably transfected with human apelin receptor and Giaq protein, Fluo-4 calcium fluorescence, read-out: EC50 (APJ agonism). Put shortly: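 Agonist EC50s come from peak intracellular calcium transients recorded by FLIPR Tetra, scaled to the 1 μM apelin-13 maximum per plate. Test system: HEK293 stably transfected with human apelin receptor plus Giaq, Fluo-4-loaded (4 μM, 1 h, 37 °C, pH 7.4 buffer with probenecid); ≥7 concentrations, triplicates.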
On to `CCCC(CCO)NC(=O)c1ccc2c(c1)nc(Cc1cccs1)n2C(CC)CC` (stereo not drawn) [Example 214, 1-(1-Ethyl-propyl)-2-thiophen-2-ylmethyl-1H-benzoimidazole-5-carboxylic acid [1-(2-hydroxy-ethyl)-butyl]-amide], for which the EC50 (usually the concentration giving half of the maximal effect) was 926 nM.

Consider `CCC(CC)n1c(Cc2cccs2)nc2cc(C(=O)N[C@@H](CC(C)C)C(=O)NC(C)c3ccc(F)cc3)ccc21` (stereo partly drawn) [Example 246, 1-(1-Ethyl-propyl)-2-thiophen-2-ylmethyl-1H-benzoimidazole-5-carboxylic acid {(S)-1-[1-(4-fluoro-phenyl)-ethylcarbamoyl]-3-methyl-butyl}-amide], for which the 50% effective concentration (EC50) came to 6840 nM.

`CCC(CC)n1c(CC2CCCC2)nc2cc(C(=O)N[C@H](CC3CCCCC3)C(=O)O)ccc21` [Example 10, (R)-3-Cyclohexyl-2-[{2-cyclopentylmethyl-1-(1-ethyl-propyl)-1H-benzoimidazole-5-carbonyl]-amino}-propionic acid]: the EC50 worked out at 1700 nM.

On to `CCC(CC)n1c(Cc2cccs2)nc2cc(C(=O)N[C@@H](CC(C)C)C(=O)NCCCOC(C)C)ccc21` [Example 358, 1-(1-Ethyl-propyl)-2-thiophen-2-ylmethyl-1H-benzoimidazole-5-carboxylic acid [(S)-1-(3-isopropoxy-propylcarbamoyl)-3-methyl-butyl]-amide], for which the EC50 is 2570 nM.

Turning to `CCCC[C@H](NC(=O)c1ccc2c(c1)nc(Cc1cccs1)n2C1CCCCC1C)C(=O)O` (single isomer, unassigned) [Example 422], the concentration for a half-maximal effect (EC50) was 1860 nM.

As to `CCC(CC)n1c(Cc2cccs2)nc2cc(C(=O)N[C@@H](CC(C)C)C(=O)NC3CCN(c4ccccn4)CC3)ccc21` [Example 293, 1-(1-Ethyl-propyl)-2-thiophen-2-ylmethyl-1H-benzoimidazole-5-carboxylic acid [(S)-3-methyl-1-(3,4,5,6-tetrahydro-2H-[1,2′]bipyridinyl-4-ylcarbamoyl)-butyl]-amide], the EC50 was 2640 nM.

As to `CCC(CC)n1c(Cc2cccs2)nc2cc(C(=O)N[C@@H](CC(=O)O)CC(C)C)ccc21` [Example 48, (R)-3-{[1-(1-Ethyl-propyl)-2-thiophen-2-ylmethyl-1H-benzoimidazole-5-carbonyl]-amino}-5-methyl-hexanoic acid], the EC50 came out at 4190 nM.

Regarding `CCC(CC)n1c(Cc2cccs2)nc2cc(C(=O)N[C@@H](CC(C)C)C(=O)NCCC3CCCCN3Cc3ccccc3)ccc21` (stereo partly drawn) [Example 307, 1-(1-Ethyl-propyl)-2-thiophen-2-ylmethyl-1H-benzoimidazole-5-carboxylic acid {(S)-1-[2-(1-benzyl-piperidin-2-yl)-ethylcarbamoyl]-3-methyl-butyl}-amide], the EC50 stood at 1830 nM.

Turning to `CCCOCCNC(=O)[C@H](CC(C)C)NC(=O)c1ccc2c(c1)nc(Cc1cccs1)n2C(CC)CC` [Example 385, 1-(1-Ethyl-propyl)-2-thiophen-2-ylmethyl-1H-benzoimidazole-5-carboxylic acid [(S)-3-methyl-1-(2-propoxy-ethylcarbamoyl)-butyl]-amide], the EC50 amounted to 2510 nM.

With `CC(C)C[C@H](NC(=O)c1ccc2c(c1)nc(Cc1cccs1)n2C1CCCCC1C)C(=O)O` (stereo partly drawn) [Example 146, (S)-4-Methyl-2-{[1-(2-methyl-cyclohexyl)-2-thiophen-2-ylmethyl-1H-benzoimidazole-5-carbonyl]-amino}-pentanoic acid], the EC50 stood at 328 nM.

As for `CCC(CC)n1c(Cc2cccs2)nc2cc(C(=O)N[C@@H](CC(C)C)C(=O)N3CCC[C@H]3C(=O)O)ccc21` [Example 409, (S)-1-((S)-2-{[1-(1-Ethyl-propyl)-2-thiophen-2-ylmethyl-1H-benzoimidazole-5-carbonyl]-amino}-4-methyl-pentanoyl)-pyrrolidine-2-carboxylic acid], the EC50 was 491 nM.

In the case of `CCC(CC)n1c(CC2CCCC2)nc2cc(C(=O)N[C@@H](CC3CCCCC3)C(=O)O)ccc21` [Example 3, (S)-3-Cyclohexyl-2-{[2-cyclopentylmethyl-1-(1-ethyl-propyl)-1H-benzoimidazole-5-carbonyl]-amino}-propionic acid], the EC50 was 1200 nM.

Turning to `CC(C)C[C@H](NC(=O)c1ccc2c(c1)nc(Cc1ccsc1)n2-c1ccccc1)C(=O)O` [Example 136, (S)-4-Methyl-2-[(1-phenyl-2-thiophen-3-ylmethyl-1H-benzoimidazole-5-carbonyl)-amino]-pentanoic acid], the EC50 was 2700 nM.

For `CCC(CC)n1c(Cc2cccs2)nc2cc(C(=O)N[C@@H](CC(C)C)C(=O)NCC3CCN(CCOC)C3)ccc21` (stereo partly drawn) [Example 305, 1-(1-Ethyl-propyl)-2-thiophen-2-ylmethyl-1H-benzoimidazole-5-carboxylic acid ((S)-1-{[1-(2-methoxy-ethyl)-pyrrolidin-3-ylmethyl]-carbamoyl}-3-methyl-butyl)-amide], the EC50 amounted to 319 nM.

Consider `CCC(CC)n1c(Cc2cccs2)nc2cc(C(=O)NC(CC3CCC(C)(C)CC3)C(=O)O)ccc21` (stereo not drawn) [Example 29, 3-(4,4-Dimethyl-cyclohexyl)-2-{[1-(1-ethyl-propyl)-2-thiophen-2-ylmethyl-1H-benzoimidazole-5-carbonyl]-amino}-propionic acid], for which the EC50 came to 5660 nM.

Regarding `CCC(CC)n1c(Cc2cccs2)nc2cc(C(=O)N[C@@H](CC(C)C)C(=O)NCC3CCCN(CCc4ccccc4)C3)ccc21` (stereo partly drawn) [Example 302, 1-(1-Ethyl-propyl)-2-thiophen-2-ylmethyl-1H-benzoimidazole-5-carboxylic acid {(S)-3-methyl-1-[(1-phenethyl-piperidin-3-ylmethyl)-carbamoyl]-butyl}-amide], the EC50 worked out at 386 nM.

In the case of `CCC(CC)n1c(Cc2cccs2)nc2cc(C(=O)N[C@H](CO)C3CCCCC3)ccc21` [Example 204, 1-(1-Ethyl-propyl)-2-thiophen-2-ylmethyl-1H-benzoimidazole-5-carboxylic acid ((S)-1-cyclohexyl-2-hydroxy-ethyl)-amide], the EC50 worked out at 1990 nM.

`CCC(CC)n1c(Cc2cccs2)nc2cc(C(=O)N[C@H](Cc3noc(C4CC4)n3)CC(C)C)ccc21` [Example 475, 1-(1-Ethyl-propyl)-2-thiophen-2-ylmethyl-1H-benzoimidazole-5-carboxylic acid [(S)-1-(5-cyclopropyl-[1,2,4]oxadiazol-3-ylmethyl)-3-methyl-butyl]-amide]: the EC50 was 2820 nM.

`CCC(CC)n1c(Cc2cccs2)nc2cc(C(=O)N[C@@H](CC(C)C)C(=O)Nc3ccc(OC)cc3)ccc21` [Example 265, 1-(1-Ethyl-propyl)-2-thiophen-2-ylmethyl-1H-benzoimidazole-5-carboxylic acid [(S)-1-(4-methoxy-phenylcarbamoyl)-3-methyl-butyl]-amide]: the concentration giving a half-maximal response (EC50) amounted to 8660 nM.

`CCC(CC)n1c(Cc2ccco2)nc2cc(C(=O)N[C@@H](CC(C)C)C(=O)O)ccc21` [Example 81, (S)-2-{[1-(1-Ethyl-propyl)-2-furan-2-ylmethyl-1H-benzoimidazole-5-carbonyl]-amino}-4-methyl-pentanoic acid]: the EC50 is < 41 nM.

In the case of `CCC(CC)n1c(Cc2cccs2)nc2cc(C(=O)N[C@@H](CC(C)C)C(=O)N(C)Cc3n[nH]c(=O)[nH]3)ccc21` [Example 405, 1-(1-Ethyl-propyl)-2-thiophen-2-ylmethyl-1H-benzoimidazole-5-carboxylic acid {(S)-3-methyl-1-[methyl-(5-oxo-4,5-dihydro-1H-[1,2,4]triazol-3-ylmethyl)-carbamoyl]-butyl}-amide], the EC50 was determined as 842 nM.

As for `CCC(CC)n1c(Cc2cccs2)nc2cc(C(=O)N[C@@H](CC(C)C)C(=O)NCc3ccc(N(C)C)cc3)ccc21` [Example 266, 1-(1-Ethyl-propyl)-2-thiophen-2-ylmethyl-1H-benzoimidazole-5-carboxylic acid [(S)-1-(4-dimethylamino-benzylcarbamoyl)-3-methyl-butyl]-amide], the EC50 is 2720 nM.

As for `C[C@@H]1CCCC[C@H]1n1c(Cc2cccs2)nc2cc(C(=O)NC(CC3CCCCCC3)C(=O)O)ccc21` (single isomer, unassigned) [Example 450], the EC50 amounted to 720 nM.

For the compound `CCC(CC)n1c(Cc2cccs2)nc2cc(C(=O)N[C@H](CC(=O)O)C(C)C)ccc21` [Example 161, (R)-3-{[1-(1-Ethyl-propyl)-2-thiophen-2-ylmethyl-1H-benzoimidazole-5-carbonyl]-amino}-4-methyl-pentanoic acid], the EC50 was 2300 nM.

Consider `CCC(CC)n1c(Cc2cccs2)nc2cc(C(=O)N[C@@H](CC(C)C)C(=O)NC3CCN(Cc4ccncc4)CC3)ccc21` [Example 298, 1-(1-Ethyl-propyl)-2-thiophen-2-ylmethyl-1H-benzoimidazole-5-carboxylic acid [(S)-3-methyl-1-(1-pyridin-4-ylmethyl-piperidin-4-ylcarbamoyl)-butyl]-amide], for which the EC50 was 1260 nM.

Consider `CCCCC(CC(=O)O)NC(=O)c1ccc2c(c1)nc(Cc1cccs1)n2[C@@H]1CCCC[C@H]1C` (stereo partly drawn) [Example 56, 3-{[1-((1R,2R)-2-Methyl-cyclohexyl)-2-thiophen-2-ylmethyl-1H-benzoimidazole-5-carbonyl]-amino}-heptanoic acid], for which the EC50 worked out at 157 nM.

Turning to `CCC(CC)n1c(Cc2cccs2)nc2cc(C(=O)N[C@@H](CC(C)C)C(=O)NC3CC4CCCC(C3)N4C)ccc21` (stereo partly drawn) [Example 292, 1-(1-Ethyl-propyl)-2-thiophen-2-ylmethyl-1H-benzoimidazole-5-carboxylic acid [(S)-3-methyl-1-(9-methyl-9-aza-bicyclo[3.3.1]non-3-ylcarbamoyl)-butyl]-amide], the EC50 is 1220 nM.
